Experimental data: ChEMBL document CHEMBL1201862, “PubChem BioAssay data set” (2004)
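Protocol summary: plate cells (96-well), add compound at 5 concentrations, incubate 48 h, interpolate endpoints linearly. Here, GI50 denotes the concentration required for 50% inhibition of growth.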 The source made the active and inactive calls. Cut-off read from the data, not from the text of the source: active = GI50 up to about 1.1 µM and inactive = higher.

Columns and labels:
Assay in all cases: NCI-60 cell line screen, 48 h
HCT-116 = system: HCT-116
MDA-MB-231 = system: MDA-MB-231
EKVX = system: EKVX
SK-MEL-5 = system: SK-MEL-5
LOX IMVI = system: LOX IMVI
OVCAR-4 = system: OVCAR-4
HCT-15 = system: HCT-15
NCI-H460 = system: NCI-H460
UACC-257 = system: UACC-257
MDA-MB-435 = system: MDA-MB-435
NCI-H23 = system: NCI-H23
SNB-19 = system: SNB-19
COLO 205 = system: COLO 205
U-251 = system: U-251
HCC 2998 = system: HCC 2998
SF-539 = system: SF-539
OVCAR-5 = system: OVCAR-5
K562 = system: K562
A549 = system: A549
UO-31 = system: UO-31

Row | SMILES | GI50 (HCT-116) | GI50 (MDA-MB-231) | GI50 (EKVX) | GI50 (SK-MEL-5) | GI50 (LOX IMVI) | GI50 (OVCAR-4) | GI50 (HCT-15) [µM] | GI50 (NCI-H460) | GI50 (UACC-257) | GI50 (MDA-MB-435) | GI50 (NCI-H23) | GI50 (SNB-19) | GI50 (COLO 205) | GI50 (U-251) | GI50 (HCC 2998) | GI50 (SF-539) | GI50 (OVCAR-5) | GI50 (K562) | GI50 (A549) | GI50 (UO-31)
1 | COC(=O)c1cc2c(n1S(=O)(=O)c1ccc(C)cc1)C(=O)C(=O)c1[nH]cc(C(=O)OCc3ccccc3)c1-2 | 0.0718 µM (active) | 0.0274 µM (active) | 0.279 µM (active) | 0.0237 µM (active) | 0.0553 µM (active) | 0.209 µM (active) | 0.0673 | 1.37 µM (inactive) | 0.0322 µM (active) | < 0.015 µM (active) | 0.0649 µM (active) | 0.191 µM (active) | 0.191 µM (active) | 0.172 µM (active) | 0.218 µM (active) | 0.136 µM (active) | 0.575 µM (active) | 0.0439 µM (active) | 0.183 µM (active) | 0.211 µM (active)
2 | CCCCCCNCCCNc1c2ccccc2nc2cccc([N+](=O)[O-])c12 | 0.0352 µM (active) | 0.0229 µM (active) | 0.0246 µM (active) | 0.0103 µM (active) | 0.0193 µM (active) | 0.0147 µM (active) | 0.0615 | 0.00269 µM (active) | 0.101 µM (active) | 0.0103 µM (active) | 0.0116 µM (active) | 0.0845 µM (active) | 0.00347 µM (active) | 0.0118 µM (active) | 0.00665 µM (active) | 0.116 µM (active) | 0.0315 µM (active) | 0.00376 µM (active) | 0.00409 µM (active) | 0.122 µM (active)
3 | CC(C)=CC(=O)c1[nH]c2ccccc2c1CC(=O)NCCc1c[nH]cn1 | > 100 µM (inactive) | > 100 µM (inactive) | > 100 µM (inactive) | > 100 µM (inactive) | > 100 µM (inactive) | > 100 µM (inactive) | > 100 | > 100 µM (inactive) | > 100 µM (inactive) | > 100 µM (inactive) | > 100 µM (inactive) | > 100 µM (inactive) | > 100 µM (inactive) | > 100 µM (inactive) | > 100 µM (inactive) | > 100 µM (inactive) | > 100 µM (inactive) | > 100 µM (inactive) | > 100 µM (inactive) | > 100 µM (inactive)
4 | Cc1ccccc1C(=O)N1CCc2c([nH]c3ccccc23)C1 | 17.7 µM (inactive) | 12.7 µM (inactive) | 24.9 µM (inactive) | 15.9 µM (inactive) | 21.9 µM (inactive) | 22.6 µM (inactive) | 21.3 | 21.7 µM (inactive) | 23.9 µM (inactive) | 14.4 µM (inactive) | 21.4 µM (inactive) | 41.7 µM (inactive) | 17.4 µM (inactive) | 18 µM (inactive) | 18.5 µM (inactive) | 21.5 µM (inactive) | 19.5 µM (inactive) | 21.4 µM (inactive) | 35.9 µM (inactive) | 31.2 µM (inactive)
5 | C[C@H]1[C@H](C)N(Cc2ccccc2)P(=O)(C(O)/C=C/c2ccccc2)N1Cc1ccccc1 (stereo not given in full) | 5.21 µM (inactive) | 6.12 µM (inactive) | 7.67 µM (inactive) | 4.55 µM (inactive) | 6.76 µM (inactive) | 5.04 µM (inactive) | 9.29 | 3.72 µM (inactive) | 5.42 µM (inactive) | 4.33 µM (inactive) | 9.84 µM (inactive) | 12 µM (inactive) | 6.64 µM (inactive) | 5.11 µM (inactive) | 6.3 µM (inactive) | 5.07 µM (inactive) | 6.61 µM (inactive) | 7.74 µM (inactive) | 8.07 µM (inactive) | 5.27 µM (inactive)
6 | COC(=O)c1ccccc1C1CN=NC12Cc1c(ccc3c1CCC3)C2=O (stereo not given) | 43.2 µM (inactive) | 67.8 µM (inactive) | 45.9 µM (inactive) | 25.4 µM (inactive) | 23.8 µM (inactive) | 45.2 µM (inactive) | 41.5 | > 100 µM (inactive) | 15.7 µM (inactive) | 23.9 µM (inactive) | 66.2 µM (inactive) | > 100 µM (inactive) | 47.8 µM (inactive) | 41 µM (inactive) | > 100 µM (inactive) | > 100 µM (inactive) | 84.3 µM (inactive) | 39.1 µM (inactive) | > 100 µM (inactive) | 80.5 µM (inactive)
7 | CCCCCC/C=C1\CCC(CN(C)C)C1=O (stereo not given) | 3.56 µM (inactive) | 6.43 µM (inactive) | 16 µM (inactive) | 14.3 µM (inactive) | 1.89 µM (inactive) | 19.6 µM (inactive) | 2.44 | 16.6 µM (inactive) | 7.71 µM (inactive) | 8.04 µM (inactive) | 8.73 µM (inactive) | 15.4 µM (inactive) | 3.15 µM (inactive) | 4.25 µM (inactive) | 5.74 µM (inactive) | 15.1 µM (inactive) | 16.9 µM (inactive) | 2.4 µM (inactive) | 19.8 µM (inactive) | 15.4 µM (inactive)
8 | COc1ccc(CCCCNCc2cccc(CNCCCCc3ccc(OC)cc3)c2)cc1 | 1.94 µM (inactive) | 1.87 µM (inactive) | 1.81 µM (inactive) | 1.66 µM (inactive) | 1.6 µM (inactive) | 2.03 µM (inactive) | 1.77 | 2.39 µM (inactive) | 2.59 µM (inactive) | 1.79 µM (inactive) | 1.78 µM (inactive) | 1.71 µM (inactive) | 2.18 µM (inactive) | 1.85 µM (inactive) | 0.308 µM (active) | 1.96 µM (inactive) | 2.09 µM (inactive) | 1.36 µM (inactive) | 2.15 µM (inactive) | 1.35 µM (inactive)
9 | O=C(O)CC1NC(/C(=C/c2ccccc2)NC(=O)c2ccccc2)OC1=O (stereo not given) | 18.5 µM (inactive) | 27.4 µM (inactive) | 39.6 µM (inactive) | 16.4 µM (inactive) | 16.2 µM (inactive) | 51.1 µM (inactive) | 31 | 22.2 µM (inactive) | > 100 µM (inactive) | 24.6 µM (inactive) | 42.7 µM (inactive) | 25.9 µM (inactive) | 19.8 µM (inactive) | 18.4 µM (inactive) | 37.9 µM (inactive) | 21 µM (inactive) | 76 µM (inactive) | 21.3 µM (inactive) | 84.5 µM (inactive) | 23.8 µM (inactive)
10 | CC1CCCC(C(O)CC2CC(=O)NC(=O)C2)C1O (stereo not given) | > 100 µM (inactive) | > 100 µM (inactive) | > 100 µM (inactive) | > 100 µM (inactive) | > 100 µM (inactive) | > 100 µM (inactive) | > 100 | > 100 µM (inactive) | > 100 µM (inactive) | > 100 µM (inactive) | > 100 µM (inactive) | > 100 µM (inactive) | > 100 µM (inactive) | > 100 µM (inactive) | > 100 µM (inactive) | > 100 µM (inactive) | > 100 µM (inactive) | > 100 µM (inactive) | > 100 µM (inactive) | > 100 µM (inactive)
11 | Cn1c(=O)n2n(c1=O)C([S+]([O-])c1ccccc1)C2 (stereo not given) | > 100 µM (inactive) | > 100 µM (inactive) | > 100 µM (inactive) | > 100 µM (inactive) | 38.9 µM (inactive) | > 100 µM (inactive) | > 100 | > 100 µM (inactive) | > 100 µM (inactive) | > 100 µM (inactive) | > 100 µM (inactive) | > 100 µM (inactive) | > 100 µM (inactive) | > 100 µM (inactive) | > 100 µM (inactive) | > 100 µM (inactive) | > 100 µM (inactive) | > 100 µM (inactive) | 65.2 µM (inactive) | > 100 µM (inactive)
12 | CC(=O)/C(=C/NC(=S)Nc1ccccc1)C(=O)Nc1ccccc1C | > 100 µM (inactive) | 29.4 µM (inactive) | > 100 µM (inactive) | 61.2 µM (inactive) | > 100 µM (inactive) | > 100 µM (inactive) | > 100 | > 100 µM (inactive) | > 100 µM (inactive) | > 100 µM (inactive) | > 100 µM (inactive) | > 100 µM (inactive) | > 100 µM (inactive) | > 100 µM (inactive) | > 100 µM (inactive) | > 100 µM (inactive) | > 100 µM (inactive) | 96.2 µM (inactive) | > 100 µM (inactive) | 41.8 µM (inactive)
13 | COc1ccc(/N=N/c2ccc3oc(=O)c(C(=O)Nc4ccc(OC)cc4)cc3c2)cc1 | 11.2 µM (inactive) | 23.5 µM (inactive) | 28.5 µM (inactive) | 14.9 µM (inactive) | 3.71 µM (inactive) | 13.4 µM (inactive) | 6.79 | 20.4 µM (inactive) | 23.8 µM (inactive) | 16.7 µM (inactive) | 17.4 µM (inactive) | 22.5 µM (inactive) | 20.8 µM (inactive) | 13.4 µM (inactive) | 19.4 µM (inactive) | 6.95 µM (inactive) | 17.8 µM (inactive) | 18.1 µM (inactive) | 31.4 µM (inactive) | 14 µM (inactive)
14 | [O-][n+]1ccc(NO)c2ccccc21 | 2.03 µM (inactive) | 1.32 µM (inactive) | 2.21 µM (inactive) | 1.25 µM (inactive) | 1.45 µM (inactive) | 1.9 µM (inactive) | 1.75 | 0.295 µM (active) | 7.36 µM (inactive) | 4.6 µM (inactive) | 1.58 µM (inactive) | 2.34 µM (inactive) | 1.41 µM (inactive) | 0.658 µM (active) | 0.253 µM (active) | 0.679 µM (active) | 3.73 µM (inactive) | 2 µM (inactive) | 1.6 µM (inactive) | 1.75 µM (inactive)
